From US20200010482A1, “INHIBITORS OF BETA SECRETASE” (Janssen Pharmaceutica NV, priority 2017, published 2020)

Tests used:
[1] = test system: Abeta 1-42 produced and secreted by SKNBE2 cells expressing hAPP695; test: Cellular αLisa assay in SKNBE2 cells, Abeta 1-42; format: cell-based, human; conditions: SKNBE2 cells expressing hAPP695, 18 hours incubation; for IC50: Homo sapiens, SKNBE2, 18 h, read-out: CELLULAR αLISA ASSAY IN SKNBE2 CELLS ABETA 42 PIC50 (converted)
Description: (§1) In two αLisa assays the levels of Abeta total and Abeta 1-42 produced and secreted into the medium of human neuroblastoma SKNBE2 cells are quantified. The assay is based on the human neuroblastoma SKNBE2 expressing the wild type Amyloid Precursor Protein (hAPP695). The compounds are diluted and added to these cells, incubated for 18 hours and then measurements of Abeta 1-42 and Abeta total are taken. Abeta total and Abeta 1-42 are measured by sandwich αLisa. αLisa is a sandwich assay using biotinylated antibody AbN/25 attached to streptavidin coated beads and antibody Ab4G8 or cAb42/26 conjugated acceptor beads for the detection of Abeta total and Abeta 1-42 respectively. In the presence of Abeta total or Abeta 1-42, the beads come into close proximity. The excitation of the donor beads provokes the release of singlet oxygen molecules that trigger a cascade of energy transfer in the acceptor beads, resulting in light emission. Light emission is measured after 1 hour incubation (excitation at […] and emission at 615 nm).
(§2) A best-fit curve is fitted by a minimum sum of squares method to the plot of % Controlmin versus compound concentration. From this an IC50 value (inhibitory concentration causing 50% inhibition of activity) can be obtained. • LC=Median of the low control values=Low control: cells preincubated without compound, without biotinylated Ab in the αLisa • HC=Median of the High control values=High Control: cells preincubated without compound
(§3) % Effect=100−[(sample−LC)/(HC−LC)*100]
(§4) % Control=(sample/HC)*100
(§5) % Controlmin=(sample−LC)/(HC−LC)*100

BACE2 = molecular target: T1, BACE2 (Homo sapiens, UniProt Q9Y5Z0); test: BACE2 biochemical FRET based assay; conditions: recombinant BACE2 0.4 μg/ml, 10 μM substrate, 450 min, pH 5.0; for IC50: read-out: BIOCHEMICAL FRET BASED ASSAY pIC50 (converted)
T1 construct: recombinant BACE2 protein in a final concentration of 0.4 μg/ml
T1 sequence (Q9Y5Z0 63-518): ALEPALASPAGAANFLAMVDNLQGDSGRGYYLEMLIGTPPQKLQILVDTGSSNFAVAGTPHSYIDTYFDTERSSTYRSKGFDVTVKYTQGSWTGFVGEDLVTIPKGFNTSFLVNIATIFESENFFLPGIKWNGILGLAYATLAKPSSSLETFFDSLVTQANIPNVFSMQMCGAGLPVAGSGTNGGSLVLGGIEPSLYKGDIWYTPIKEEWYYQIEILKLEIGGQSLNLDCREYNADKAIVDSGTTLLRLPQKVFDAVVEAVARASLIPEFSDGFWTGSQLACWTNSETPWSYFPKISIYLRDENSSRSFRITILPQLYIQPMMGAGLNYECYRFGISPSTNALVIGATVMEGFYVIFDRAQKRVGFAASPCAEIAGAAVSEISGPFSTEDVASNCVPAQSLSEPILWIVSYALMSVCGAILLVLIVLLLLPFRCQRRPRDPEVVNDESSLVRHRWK
From the text: (§6) This assay is a Fluorescence Resonance Energy Transfer Assay (FRET) based assay. The substrate for this assay contains the ‘Swedish’ Lys-Met/Asn-Leu mutation of the amyloid precursor protein (APP) beta-secretase cleavage site. This substrate also contains two fluorophores: (7-methoxycoumarin-4-yl) acetic acid (Mca) is a fluorescent donor with excitation wavelength at 320 nm and emission at 405 nm and 2,4-Dinitrophenyl (Dnp) is a proprietary quencher acceptor. […] Upon cleavage by the beta-secretase, the fluorophore Mca is separated from the quenching group Dnp, restoring the full fluorescence yield of the donor. The increase in fluorescence is linearly related to the rate of proteolysis.
Briefly in a 384-well format recombinant BACE2 protein in a final concentration of 0.4 μg/ml is incubated for 450 minutes at room temperature with 10 μM substrate in incubation buffer (50 mM Citrate buffer pH 5.0, 0.05% PEG, no DMSO) in the absence or presence of compound. Next the amount of proteolysis is directly measured by fluorescence measurement at T=0 and T=450 (excitation at 320 nm and emission at 405 nm). Results are expressed in RFU (Relative Fluorescence Units), as difference between T450 and TO.
(§7) A best-fit curve is fitted by a minimum sum of squares method to the plot of % Controlmin versus compound concentration. From this an IC50 value (inhibitory concentration causing 50% inhibition of activity) can be obtained. • LC=Median of the low control values=Low control: Reaction without enzyme • HC=Median of the High control values=High Control: Reaction with enzyme
as §3, §4, §5

BACE1 = molecular target: T2, BACE1 (Homo sapiens, UniProt P56817); test: BACE1 biochemical FRET based assay; conditions: recombinant BACE1 0.04 μg/ml, 20 μM substrate, 450 min, pH 5.0; for IC50: read-out: BIOCHEMICAL FRET BASED ASSAY pIC50 (converted)
T2 construct: recombinant BACE1 protein in a final concentration of 0.04 μg/ml
T2 sequence (P56817 46-501): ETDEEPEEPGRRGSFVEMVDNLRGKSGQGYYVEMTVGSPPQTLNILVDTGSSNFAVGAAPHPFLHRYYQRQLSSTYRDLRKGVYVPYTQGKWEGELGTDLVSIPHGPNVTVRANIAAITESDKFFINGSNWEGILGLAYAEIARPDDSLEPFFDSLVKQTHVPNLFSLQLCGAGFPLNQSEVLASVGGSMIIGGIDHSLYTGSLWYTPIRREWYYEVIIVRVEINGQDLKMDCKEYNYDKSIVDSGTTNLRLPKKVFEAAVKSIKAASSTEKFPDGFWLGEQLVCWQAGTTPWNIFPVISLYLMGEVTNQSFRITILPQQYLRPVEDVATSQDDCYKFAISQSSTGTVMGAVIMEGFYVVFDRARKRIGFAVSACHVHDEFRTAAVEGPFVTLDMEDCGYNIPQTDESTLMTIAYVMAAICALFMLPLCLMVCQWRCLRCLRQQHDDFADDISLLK
From the text: as §6, with “this assay is an APP derived 13 amino acids peptide that contains the” for “this assay contains the”, “cleavage by BACE1, the fluorophore” for “cleavage by the beta-secretase, the fluorophore”
Briefly in a 384-well format recombinant BACE1 protein in a final concentration of 0.04 μg/ml is incubated for 450 minutes at room temperature with 20 μM substrate in incubation buffer (50 mM Citrate buffer pH 5.0, 0.05% PEG) in the presence of compound or DMSO. Next the amount of proteolysis is directly measured by fluorescence measurement (excitation at 320 nm and emission at 405 nm) at different incubation times (0, 30, 60, 90, 120 and 450 min). For every experiment a time curve (every 30 min between 0 min and 120 min) is used to determine the time where we find the lowest basal signal of the high control. The signal at this time (Tx) is used to subtract from the signal at 450 min. Results are expressed in RFU, as difference between T450 and Tx.
as §7, §3, §4, §5

[2] = test system: Abeta total produced and secreted by SKNBE2 cells expressing hAPP695; test: Cellular αLisa assay in SKNBE2 cells, Abeta total; format: cell-based, human; conditions: SKNBE2 cells expressing hAPP695, 18 hours incubation; for IC50: Homo sapiens, SKNBE2, 18 h, read-out: CELLULAR αLISA ASSAY IN SKNBE2 CELLS ABETA TOTAL pIC50 (converted)
Description: as §1, §2, §3, §4, §5

IC50 [1]	IC50 (BACE2)	IC50 (BACE1)	IC50 [2]	CELLULAR αLISA ASSAY IN SKNBE2 CELLS ABETA TOTAL pIC50 [2]	BIOCHEMICAL FRET BASED ASSAY pIC50 (BACE2)	BIOCHEMICAL FRET BASED ASSAY pIC50 (BACE1)	Compound	CELLULAR αLISA ASSAY IN SKNBE2 CELLS ABETA 42 PIC50 [1]
1.7 nM	12 nM	5.89 nM	1.91 nM	–	–	–	COc1ncc(-c2cccnc2)c2c1C[C@]1(c3ccc(F)cc3F)N=C(N)SC[C@@H]1C2 (racemic) [Compound 25]	–
26.3 nM	63.1 nM	162 nM	32.4 nM	–	–	–	COc1nccc2c1CC1(c3cc(O)ccc3F)N=C(N)SCC1C2 (racemic) [Compound 5]	–
–	> 10000 nM	6460 nM	–	5.69	–	–	COc1ncc(-c2cnccc2C)c2c1CC1(c3ccc(Cl)cc3F)N=C(N)SCC1C2 (single isomer, unassigned) [Compound 201]	5.64
–	–	–	–	8.71	5.78	8.3	COc1ncc(-c2cnccc2C)c2c1C[C@]1(c3cc(-c4cncnc4)ccc3F)N=C(N)SC[C@@H]1C2 (mixture of isomers) [Compound 39]	8.78
–	–	–	–	7.62	7.55	7.6	COc1ncc(Oc2ccccn2)c2c1C[C@]1(c3ccc(F)cc3F)N=C(N)SC[C@@H]1C2 [Compound 135]	7.6
–	437 nM	17.8 nM	–	8.05	–	–	COc1ncc(-c2cnccc2C)c2c1CC1(c3ccc(Cl)cc3F)N=C(N)SCC1C2 (single isomer, unassigned) [Compound 200]	8.09
–	–	–	–	5.9	<5	5.26	COc1ncc(-c2cnccc2C)c2c1C[C@@]1(c3cc(-c4cncnc4)ccc3F)N=C(N)SC[C@H]1C2 [Compound 193]	6.01
0.646 nM	7.08 nM	3.8 nM	0.631 nM	–	–	–	COc1ncc(-c2cccnc2)c2c1C[C@]1(c3ccc(F)cc3F)N=C(N)SC[C@@H]1C2 [Compound 87]	–
1410 nM	6030 nM	6030 nM	1510 nM	–	–	–	Cn1ccc2c(c1=O)C[C@]1(c3ccccc3F)N=C(N)SC[C@@H]1C2 (racemic) [Compound 34]	–
3090 nM	6920 nM	4470 nM	3470 nM	–	–	–	COc1nccc2c1C[C@@]1(c3cc(O)ccc3F)N=C(N)SC[C@H]1C2 [Compound 183]	–
132 nM	67.6 nM	30.9 nM	145 nM	–	–	–	COc1ncc(Br)c2c1CC1(c3ccc(F)cc3F)N=C(N)SCC1C2 (racemic) [Compound 17]	–
–	–	–	–	7.82	7.72	7.97	COc1ncc(Br)c2c1C[C@]1(c3cc(Oc4ccccn4)ccc3F)N=C(N)SC[C@@H]1C2 [Compound 137]	7.74
> 8910 nM	> 10000 nM	> 10000 nM	6920 nM	–	–	–	CCOc1nccc2c1CC1(c3ccc(F)cc3F)N=C(N)SCC1C2 (single isomer, unassigned) [Compound 194]	–
16.6 nM	45.7 nM	138 nM	15.8 nM	–	–	–	COc1nccc2c1C[C@]1(c3cc(O)ccc3F)N=C(N)SC[C@@H]1C2 [Compound 36]	–
1290 nM	6170 nM	4790 nM	1320 nM	–	–	–	COc1nccc2c1C[C@@]1(c3ccc(F)cc3F)N=C(N)SC[C@H]1C2 [Compound 182]	–
6.92 nM	12.3 nM	13.8 nM	6.61 nM	–	–	–	CCOC(=O)c1cnc(OC)c2c1C[C@H]1CSC(N)=N[C@@]1(c1ccc(F)cc1F)C2 (racemic) [Compound 24]	–
13.5 nM	35.5 nM	35.5 nM	12.6 nM	–	–	–	COc1ncc(-c2ccn[nH]2)c2c1C[C@]1(c3ccc(F)cc3F)N=C(N)SC[C@@H]1C2 (racemic) [Compound 29]	–
23.4 nM	14.1 nM	24.5 nM	23.4 nM	–	–	–	COc1ncc(C2CC2)c2c1C[C@]1(c3ccccc3F)N=C(N)SC[C@@H]1C2 (racemic) [Compound 20]	–
4070 nM	9550 nM	8710 nM	4680 nM	–	–	–	NC1=N[C@@]2(c3ccccc3F)Cc3c(cc[nH]c3=O)C[C@H]2CS1 (racemic) [Compound 3]	–
355 nM	97.7 nM	135 nM	302 nM	–	–	–	CCOc1ncc(C2CC2)c2c1CC1(c3ccc(F)cc3F)N=C(N)SCC1C2 (racemic) [Compound 21]	–
26.3 nM	155 nM	75.9 nM	29.5 nM	–	–	–	COc1ncc(C#N)c2c1CC1(c3ccc(F)cc3F)N=C(N)SCC1C2 (racemic) [Compound 23]	–
13.8 nM	44.7 nM	34.7 nM	12 nM	–	–	–	COc1nccc2c1C[C@]1(c3ccc(F)cc3F)N=C(N)SC[C@@H]1C2 [Compound 35]	–
